Here are results for five compounds from PMC10300901, “Anticancer Activity and Mode of Action of Cu(II), Zn(II), and Mn(II) Complexes with 5-Chloro-2-N-(2-quinolylmethylene)aminophenol” (Molecules, 2023).

The test system of one data set is MCF-7. The data set can be described thus: MTT cytotoxicity assay, MCF-7. In kind it is cell-based. In general terms: Formazan colour is commonly taken as a measure of viable cells.
The subject of another data set is Hela. Briefly: MTT cytotoxicity assay, Hela. In kind it is cell-based.
Data set [1] deals with cisplatin-resistant lung cancer (A549cisR) cells. Briefly: MTT cytotoxicity assay, A549cisR. The data set is classed as cell-based.
Experimental: (§2) The cytotoxicity of C1–C3 was determined using an MTT (3-(4,5-dimethylthiazol-2-yl)-2,5-diphenyltetrazolium bromide) assay on various cancer cells.
A further data set concerns WI-38. Briefly: MTT cytotoxicity assay, WI-38. In kind it is cell-based.
Data set [2] has as its system A549 cells. The data set can be described thus: MTT cytotoxicity assay, A549.
Experimental: as §2
A short description of data set [3]: Solubility in saline (0.9% sodium chloride solution). The data set is classed as physicochemical.
In data set [4] the test system is A549 cells. Briefly: Wound-healing assay (cell migration). In kind it is cell-based. Particulars: 2 μM and 4 μM, 24 h. As for the experimental part: (§1) Cell migration is crucial to cancer development and metastasis; metastasis is a major cause of many cancer-related deaths. The migration is very usually assessed by the application of the wound-healing assay, which involves the creation of an artificial gap in a cancer cell monolayer, followed by observation of the area covered with migrating cells. Therefore, the inhibiting effect of C1 on cancer cell migration was evaluated using a wound-healing assay. […] In addition, the effect of C1 on A549 cell invasion was investigated using a transwell assay.
To evaluate the impact of C1 on cell migration, a wound-healing assay was carried out. A549 cells were seeded into 6-well plates and incubated overnight at 37 °C. C1 was dissolved in saline. Subsequently, scratch wounds were performed in the monolayer of cells using sterile toothpicks, and then the cells were treated with the Cu complex (2 μM and 4 μM). The cells were captured using an inverted microscope at 0 and 24 h.

Data set [5] has as its system A549 cells. The data set can be described thus: Transwell invasion assay. In kind it is cell-based. As to conditions: 24 h. Here is the method:
as §1
The effect of C1 on tumor cell invasiveness was assessed by transwell assay. In brief, the transwell chamber was pre-coated with 70 μL diluted matrigel for 8 h at 37 °C. A549 cells were seeded to the upper chamber, and then C1 was added to the chamber. After 24 h of incubation, the chambers were washed, stained with 0.5% crystal violet for 20 min, and captured using an inverted microscope.

For data set [6], the system named is A549 cells. The data set can be described thus: Mitochondrial membrane potential (JC-1, flow cytometry). In kind it is cell-based. As to conditions: C1 8 μM, 24 h. Here is the method:
Mitochondria play a key role in death signals through intrinsic and extrinsic apoptosis. Therefore, after exposure to C1, A549 cells were stained with a JC-1 probe to evaluate the mitochondrial membrane potential (ΔΨm) using flow cytometry.
Exponentially growing A549 cells were cultured in 6-well plates. Subsequently, C1 (4 μM and 8 μM) was exposed to the cells for 24 h. The cells were stained with JC-1 probe and analyzed by flow cytometry.
(In general: Flow cytometry measures light scatter and fluorescence of single cells or particles in a stream.)

Data set [7] concerns A549 cells. The data set can be described thus: Cell apoptosis analysis (Annexin V/PI, flow cytometry). In kind it is cell-based. Particulars: 24 h, control 4.0%. As for the experimental part:
Then, the effect of C1 on A549 cells apoptosis was stained with Annexin V/PI and analyzed using flow cytometry.
The A549 cells were placed in 6-well plates and incubated overnight. The cells were treated with C1 (4 μM and 8 μM) and incubated for 24 h. Subsequently, the cells were harvested and stained with Annexin V/PI for 20 min. The samples were detected by flow cytometry.

The test system of the next data set is CT-DNA. The data set can be described thus: EB-DNA fluorescence-quenching assay. The data set is classed as binding. Particulars: C1 0−16 μM, 8 μM EB, 10 μM CT-DNA, pH 7.2 Tris–HCl. Here is the method:
Competitive studies with ethidium bromide (EB) have been widely used in fluorescence-quenching assays to evaluate the interaction between DNA and small molecules. Therefore, to further explore the binding property of C1 and DNA, fluorescence quenching was carried out to explore the interaction mode.
The fluorescence spectrum was performed to measure the interaction mode of C1 (0−16 μM) and EB-DNA (8 μM ethidium bromide added into 10 μM CT-DNA) in a pH 7.2 Tris–HCl buffer. The EB-DNA was excited at 510 nm, and for the emission spectra, the emission range was set to 530–750 nm. C1 was gradually added to the EB-DNA solution.

In data set [8] the test system is A549 cells. The data set can be described thus: Cell cycle analysis (PI, flow cytometry). The data set is classed as cell-based. Particulars: 48 h. Here is the method:
The influence of metal compounds on cell cycle arrest contributes to their anticancer activity. To determine the effect of C1 on the cell cycle, the distribution of the cell cycle of C1-treated A549 cells was detected using flow cytometry.
The A549 cells were seeded into 10 cm dishes and incubated overnight. Subsequently, the cells were treated with C1 (4 μM and 8 μM). After 48 h, the cells were collected, fixed with 75% ethanol overnight, stained with PI for 20 min, and measured by flow cytometry.

Data set [9] concerns A549 cells. The data set can be described thus: β-Galactosidase staining assay (senescence). In kind it is cell-based. As to conditions: 24 h treatment. As for the experimental part:
Senescence is a permanent cellular stage involving cell cycle arrest, which is a potential strategy against cancer. We measured the impact of C1 on cell senescence in A549 cells using a β-galactosidase staining assay. The senescent cells were dyed blue by β-galactosidase.
A549 cells were cultured in 6-well plates and incubated overnight. After C1 treatment for 24 h, the cells were fixed. Then, 20 min later, the cells were washed and stained with β-galactosidase for 48 h. The stained cells were observed and captured using an inverted microscope.

Data set [10] concerns A549 cells. Briefly: Measurement of cellular ROS (H2DCF-DA, flow cytometry). As to conditions: 4 μM and 8 μM, 24 h, vs control. The data set is classed as cell-based. As for the experimental part:
A change in the mitochondrial membrane potential results in mitochondrial dysfunction, which can induce reactive oxygen species (ROS) production. Based on the above information, we detected the ROS level in A549 cells using flow cytometry.
The ROS in A549 cells was analyzed by flow cytometry. After pretreatment with C1 (4 μM and 8 μM) for 24 h, the A549 cells were collected and stained with H2DCF-DA. After 20 min, the samples were measured using a flow cytometer.

In data set [11] the test system is A549 cells. The data set can be described thus: Comet assay (DNA damage). The data set is classed as cell-based. As for the experimental part:
Excessive intracellular ROS can cause DNA damage and cell death. Next, a comet assay was performed to determine whether C1 caused DNA damage. Undamaged DNA cannot migrate, and fluorescence is only confined to the nucleus. In DNA-damaged cells, negatively charged DNA fragments are then released from the nucleus and migrate towards the anode. There was no comet-like cell observed in the control group. In comparison, C1-treated cells with longer tails (white arrows) were observed, and a higher percentage, indicating the existence of severe DNA fragmentation (Figure 7B).
The A549 cells were seed into 6-well plates and treated with C1. A mixture of 10 μL cell suspension and 70 μL low-melting-point agarose (1%) were placed on a glass microscope slide (pre-coated with 1% normal-melting-point agarose) and covered with coverslips. The cells were separate by gel electrophoresis, stained with PI, and captured using an inverted fluorescence microscope.

For a further data set, the system named is A549 tumor. The data set can be described thus: In vivo antitumor experiment in mice bearing A549 tumors. On the set-up: species or system BALB/C nude mice. Particulars: for Tumor growth inhibition rate: two weeks, mice bearing A549 tumors. Here is the method: Based on these promising biological properties, the in vivo therapeutic efficacy of C1 was further investigated in mice bearing A549 tumors. […] Generally, body weight change is considered a key indicator of systemic toxicity.
In addition, TUNEL (terminal deoxynucleotidyl transferase dUTP nick end labeling) staining of tumor tissue sections was performed to examine the effect of C1 on apoptosis in vivo. […] Histological analyses were carried out using H&E (hematoxylin and eosin) staining to evaluate the toxicity of C1 for the major organ.
BALB/C nude mice (6–8 weeks old, 18–22 g) were purchased from Hunan SJA Laboratory Animal Co., Ltd. An amount of 200 μL of A549 cells (containing 2 × 10^6 cells) were subcutaneously injected into the left flank of the mice. The mice were randomly divided into 3 groups when the average tumor size reached 100 mm^3. Then, the mice were treated with saline and C1 (2.5 and 5 mg/kg) for two weeks. C1 was dissolved in saline. During the treatment, the tumor volume and body weight of mice were measured every two days. The major organs (heart, kidney, and liver) and tumor tissues were harvested and sliced for H&E staining and TUNEL staining, respectively.

Like-named read-outs stand apart in the source and are kept apart here.

Experimental for Hela: as §2
Experimental for MCF-7: as §2
Experimental for WI-38: as §2

One may read the IC50 as the concentration needed to halve the response being measured. Regarding “5-chloro-2-N-(2-quinolylmethylene)aminophenoxide-Zn(II)-chloride/pyridine [C2]”, the IC50 in the data set with MCF-7 was 23.6 ± 0.98 µM; in the data set with Hela, 22.8 ± 0.8 µM; in data set [1], 29.3 ± 0.85 µM; in the data set with WI-38, 34 ± 1.06 µM; in the data set on A549 cells [2] (read-out: IC50 A549, MTT assay), 18.3 ± 0.52 µM.

As for `Oc1cc(Cl)ccc1/N=C/c1ccc2ccccc2n1` [L, 5-chloro-2-N-(2-quinolylmethylene) aminophenol], the IC50 is over 40 µM with MCF-7 (Homo sapiens, MCF7); over 40 µM in the data set with Hela (Homo sapiens, HeLa); over 40 µM in data set [1]; over 40 µM with WI-38 (Homo sapiens, WI-38); over 40 µM in the data set on A549 cells [2] (Homo sapiens, A549, read-out: IC50 A549).

In turn, `O.O.[Cl][Mn][O]c1cc(Cl)ccc1N=Cc1ccc2ccccc2n1` [C3, 5-chloro-2-N-(2-quinolylmethylene)aminophenoxide-Mn(II)-chloride/dihydrate] gave a Solubility in saline in [3] of at least 800 µg/mL. Moreover, the IC50 in the data set on MCF-7 was over 40 µM; with Hela it was over 40 µM; in data set [1], over 40 µM; with WI-38, over 40 µM; in the data set on A549 cells [2] (read-out: IC50 A549, MTT assay), 33.6 ± 0.98 µM.

For the compound `N.N.[Cl][Pt][Cl]` [Cisplatin, reference compound], the IC50 is 14.5 ± 0.48 µM in the data set with MCF-7; 15.3 ± 0.51 µM in the data set on Hela; over 40 µM in data set [1]; 9.61 ± 0.58 µM with WI-38; 12.5 ± 0.45 µM in the data set with A549 cells [2] (read-out: IC50 A549, MTT assay).

In turn, `[Cl][Cu][O]c1cc(Cl)ccc1N=Cc1ccc2ccccc2n1` [C1, 5-chloro-2-N-(2-quinolylmethylene)aminophenoxide-Cu(II)-chloride] had a Solubility in saline in data set [3] of at least 1900 µg/mL. The IC50 was determined as 5.3 ± 0.35 µM in the data set with MCF-7; 6.31 ± 0.32 µM with Hela; 6.79 ± 0.38 µM in [1]; 10.2 ± 0.43 µM in the data set on WI-38; 3.93 ± 0.28 µM with A549 cells [2] (read-out: IC50 A549, MTT assay). In the data set on A549 cells [4], the “Effect on migration of A549 cells” value is recorded as “strongly inhibited the migration ability of A549 cells”. In addition, the “Effect on invasion of A549 cells” value in the data set with A549 cells [5] is on record as “could inhibit the invasion abilities of A549 cells”. Also, the “ΔΨm of A549 cells reduced by (JC-1)” value with A549 cells [6] was found to be 23.7%. For the same compound, the “Population of apoptotic cells” value in the data set on A549 cells [7] (C1 4 μM) came to 15.0%; in the data set with A549 cells [7] (C1 8 μM), 23.8%. In the data set on CT-DNA, the “DNA binding mode (EB displacement)” value is on record as “binds to DNA in an intercalative binding mode”. The “Percentage of cells in G0/G1 phase” value in the data set with A549 cells [8] (C1 4 μM) was 48.85%; in the data set with A549 cells [8] (C1 8 μM), 54.45%. The “Percentage of cells in G2/M phase” value is 7.98% in the data set with A549 cells [8] (C1 4 μM) and 9.96% with A549 cells [8] (C1 8 μM). Moreover, the “Percentage of cells in S phase” value in the data set on A549 cells [8] (C1 4 μM) came to 43.17%; in the data set with A549 cells [8] (C1 8 μM), 35.59%. Moreover, in the data set on A549 cells [9], the “Cell senescence (β-galactosidase staining)” value was “can induce A549 cell senescence”. Moreover, in the data set with A549 cells [10], the “Intracellular ROS level” value is listed as “significantly increased”. Further, in the data set on A549 cells [11], the “DNA damage (comet assay)” value is recorded as “induces DNA damage”. The “Tumor growth inhibition rate” value is reported as 46.3% in the data set on A549 tumor (C1 2.5 mg/kg) and 63.5% with A549 tumor (C1 5 mg/kg). Besides, in the data set with A549 tumor (C1 2.5 and 5 mg/kg, vs control group), the Body weight change entry was “no apparent weight loss”. In addition, the “Histology of heart, liver, and kidney (H&E staining)” value in the data set on A549 tumor (after treatment with C1) is reported as “no pathological alterations or other abnormalities”. In addition, the “Apoptosis in tumor tissue (TUNEL staining)” value in the data set on A549 tumor (tumor tissue sections) was “notable cell apoptosis”.
